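Grown in 96-well plates, cells were treated for 48 hours with each compound at five concentrations. Insufficient inhibition: endpoint recorded as highest concentration tested. The concentration for 50% growth inhibition is given as GI50.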 Activity calls are given as the source filed them. No stated cut-off is given here; in the data, active = GI50 up to about 1.1 µM and inactive = higher.
Columns and labels:
Assay in all cases: DTP human tumour cell line panel, 48 h
[1] = test system: 786-0
[2] = test system: COLO 205
[3] = test system: HCT-15
[4] = test system: HL-60
[5] = test system: HOP-62
[6] = test system: HT-29
[7] = test system: KM12
[8] = test system: MDA-N
[9] = test system: Malme-3M
[10] = test system: NCI-H23
[11] = test system: NCI-H522
[12] = test system: OVCAR-5
[13] = test system: PC-3
[14] = test system: SF-539
[15] = test system: SK-MEL-2
[16] = test system: SK-OV-3
[17] = test system: SN12C
[18] = test system: SR
[19] = test system: SW-620
[20] = test system: DLD-1

| SMILES | GI50 [1] | GI50 [2] | GI50 [3] [µM] | GI50 [4] | GI50 [5] | GI50 [6] | GI50 [7] | GI50 [8] | GI50 [9] | GI50 [10] | GI50 [11] | GI50 [12] | GI50 [13] | GI50 [14] | GI50 [15] | GI50 [16] | GI50 [17] | GI50 [18] | GI50 [19] | GI50 [20] |
| --- | --- | --- | --- | --- | --- | --- | --- | --- | --- | --- | --- | --- | --- | --- | --- | --- | --- | --- | --- | --- |
| COc1ccc2nc(N/N=C/c3ccc(C)s3)cc(C)c2c1 | 13 µM (inactive) | 19.4 µM (inactive) | 7.96 | 27.2 µM (inactive) | 20.1 µM (inactive) | 6.08 µM (inactive) | 19.7 µM (inactive) | 16.3 µM (inactive) | 31 µM (inactive) | 13.5 µM (inactive) | 39.7 µM (inactive) | 15.7 µM (inactive) | 17.1 µM (inactive) | 16.5 µM (inactive) | 21.7 µM (inactive) | 22.9 µM (inactive) | 17.9 µM (inactive) | 25.4 µM (inactive) | 25.1 µM (inactive) | – |
| O=C(c1ccsc1)c1cc2c(s1)C(=O)c1ccsc1C2=O | 0.189 µM (active) | 1.51 µM (inactive) | 0.155 | 1.48 µM (inactive) | 0.168 µM (active) | 0.676 µM (active) | 0.191 µM (active) | 0.0237 µM (active) | 0.0202 µM (active) | 0.137 µM (active) | 0.137 µM (active) | 0.552 µM (active) | 0.29 µM (active) | 0.0671 µM (active) | 0.281 µM (active) | 1.61 µM (inactive) | 0.0635 µM (active) | 1.87 µM (inactive) | 0.17 µM (active) | – |
| CCCCCCCCOCC(O)COC (stereo not drawn) | > 100 µM (inactive) | > 100 µM (inactive) | > 100 | > 100 µM (inactive) | > 100 µM (inactive) | > 100 µM (inactive) | – | – | > 100 µM (inactive) | > 100 µM (inactive) | – | > 100 µM (inactive) | – | – | – | > 100 µM (inactive) | > 100 µM (inactive) | > 100 µM (inactive) | > 100 µM (inactive) | > 100 µM (inactive) |
| COc1cc2cnc3c4cc(OC(C)C)c(OC)cc4ccc3c2cc1OC | > 100 µM (inactive) | > 100 µM (inactive) | > 100 | – | > 100 µM (inactive) | > 100 µM (inactive) | > 100 µM (inactive) | – | > 100 µM (inactive) | > 100 µM (inactive) | > 100 µM (inactive) | > 100 µM (inactive) | – | > 100 µM (inactive) | > 100 µM (inactive) | > 100 µM (inactive) | > 100 µM (inactive) | – | > 100 µM (inactive) | > 100 µM (inactive) |
| Cn1ncc2ccc3[nH]c4ccccc4c(=O)c3c21 | 36.5 µM (inactive) | 26.4 µM (inactive) | 22.9 | 27.9 µM (inactive) | 26.5 µM (inactive) | 35 µM (inactive) | 38.3 µM (inactive) | – | 30.1 µM (inactive) | 20.6 µM (inactive) | 17.5 µM (inactive) | 33.6 µM (inactive) | – | – | 33.1 µM (inactive) | 50.7 µM (inactive) | 28.2 µM (inactive) | 29.9 µM (inactive) | 26.2 µM (inactive) | 27.5 µM (inactive) |
| O=c1oc2ccc([N+](=O)[O-])cc2c(Nc2ccc3c(c2)S(=O)(=O)c2ccccc2O3)c1[N+](=O)[O-] | > 100 µM (inactive) | > 100 µM (inactive) | 83 | > 100 µM (inactive) | 49.9 µM (inactive) | 65.9 µM (inactive) | > 100 µM (inactive) | 68.1 µM (inactive) | > 100 µM (inactive) | > 100 µM (inactive) | 87.1 µM (inactive) | > 100 µM (inactive) | 34.8 µM (inactive) | 46.8 µM (inactive) | 52.2 µM (inactive) | > 100 µM (inactive) | 80.2 µM (inactive) | 32.4 µM (inactive) | 97.7 µM (inactive) | – |
| CC1(c2cccc(N)c2)C2C(=O)NC(=O)C1C(=O)NC2=O (stereo not drawn) | 38.3 µM (inactive) | 23.7 µM (inactive) | 36.2 | 19.6 µM (inactive) | 32.2 µM (inactive) | 29.4 µM (inactive) | 23.6 µM (inactive) | – | 31.1 µM (inactive) | 22.1 µM (inactive) | 19.7 µM (inactive) | 38.6 µM (inactive) | – | 28.6 µM (inactive) | 24.3 µM (inactive) | 23.9 µM (inactive) | 29 µM (inactive) | – | 34 µM (inactive) | 34.7 µM (inactive) |
| C/C(CN1C(=O)c2ccccc2C1=O)=N\NS(=O)(=O)c1cccc([N+](=O)[O-])c1 | > 100 µM (inactive) | > 100 µM (inactive) | > 100 | > 100 µM (inactive) | > 100 µM (inactive) | > 100 µM (inactive) | > 100 µM (inactive) | – | > 100 µM (inactive) | > 100 µM (inactive) | > 100 µM (inactive) | > 100 µM (inactive) | – | > 100 µM (inactive) | > 100 µM (inactive) | > 100 µM (inactive) | > 100 µM (inactive) | – | > 100 µM (inactive) | > 100 µM (inactive) |
